In patent publication US20240083857A1, “2-Methyl-Quinazolines” (Bayer Pharma Aktiengesellschaft, priority 2017, published 2024):
pIC50: −log10 of the molar value.

Assays:
[1] = target: human SOS1 (loading of human K-Ras^G12C-GDP with fluorescent GTP-analog) (Homo sapiens, UniProt Q07889); test: Biochemical assay 3: K-Ras^G12C activation assay by hSOS1 (HTRF); conditions: E-notation values; unit inferred; read-out: Assay 3 (KRAS-Activation) IC50
[2] = target: Epidermal Growth Factor Receptor (EGFR) (Homo sapiens (Human), UniProt P00533); test: EGFR kinase assay (TR-FRET); assay type: biochemical; conditions: E-notation values; unit inferred; read-out: EGFR-assay IC50
Summary of the method: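 EGFR purified from A431 cells was preincubated with compound 15 min at 22° C in pH 7.0 Hepes buffer with MgCl2, MnCl2 and vanadate before reaction with a biotinylated peptide. After EDTA stop, phosphopeptide was detected by TR-FRET (anti-phosphotyrosine Tb-cryptate, streptavidin-XL665) as the 665/620 nm emission ratio.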

Epidermal Growth Factor Receptor (EGFR), sequence (P00533 25-1210): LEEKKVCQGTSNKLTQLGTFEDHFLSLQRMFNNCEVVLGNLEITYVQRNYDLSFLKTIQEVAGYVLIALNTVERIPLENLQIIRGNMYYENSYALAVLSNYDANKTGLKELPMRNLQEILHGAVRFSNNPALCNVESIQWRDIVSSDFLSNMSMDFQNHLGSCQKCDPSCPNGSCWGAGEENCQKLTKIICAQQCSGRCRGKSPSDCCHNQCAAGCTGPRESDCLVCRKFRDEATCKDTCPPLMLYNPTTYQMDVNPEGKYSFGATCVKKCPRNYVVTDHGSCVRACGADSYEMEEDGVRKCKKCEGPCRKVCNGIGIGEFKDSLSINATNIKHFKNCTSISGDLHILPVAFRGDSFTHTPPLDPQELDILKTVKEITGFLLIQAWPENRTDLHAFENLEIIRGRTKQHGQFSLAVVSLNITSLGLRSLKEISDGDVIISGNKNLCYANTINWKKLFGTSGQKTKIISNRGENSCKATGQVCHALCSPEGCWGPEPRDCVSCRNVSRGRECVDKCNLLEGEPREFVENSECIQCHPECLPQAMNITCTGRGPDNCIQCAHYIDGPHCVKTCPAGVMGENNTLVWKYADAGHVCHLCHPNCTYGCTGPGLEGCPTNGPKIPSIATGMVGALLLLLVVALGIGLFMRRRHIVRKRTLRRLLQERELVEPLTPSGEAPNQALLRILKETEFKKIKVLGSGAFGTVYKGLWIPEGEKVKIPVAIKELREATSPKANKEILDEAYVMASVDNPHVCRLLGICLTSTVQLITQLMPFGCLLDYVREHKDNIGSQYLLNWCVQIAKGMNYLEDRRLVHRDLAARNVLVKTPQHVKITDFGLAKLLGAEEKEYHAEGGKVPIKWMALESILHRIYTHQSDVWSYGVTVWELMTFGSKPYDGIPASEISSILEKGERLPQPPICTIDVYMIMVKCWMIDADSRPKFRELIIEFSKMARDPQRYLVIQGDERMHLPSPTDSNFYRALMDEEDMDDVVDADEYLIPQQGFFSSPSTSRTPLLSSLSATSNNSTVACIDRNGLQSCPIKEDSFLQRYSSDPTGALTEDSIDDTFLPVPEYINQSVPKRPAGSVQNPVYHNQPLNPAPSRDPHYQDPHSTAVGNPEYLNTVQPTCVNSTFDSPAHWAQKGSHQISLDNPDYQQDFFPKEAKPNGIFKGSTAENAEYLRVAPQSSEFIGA

| SMILES | pIC50 [1] | pIC50 [2] |
| --- | --- | --- |
| COc1ccc(-c2ccc(C(C)Nc3nc(C)nc4cc(OC)c(OC)cc34)s2)c(CN(C)C)c1 (stereo not drawn) [Example 439, N-[1-(5-{2-[(dimethylamino)methyl]-4-methoxyphenyl}thiophen-2-yl)ethyl]-6,7-dimethoxy-2-methylquinazolin-4-amine] | 6.64 | < 4.70 |
| Cc1nc(NC(C)c2ccc(-c3ccccc3CN(C)C)s2)c2cc(NC(=O)N(C)C)ccc2n1 (stereo not drawn) [Example 440, 3-(4-{[1-(5-{2-[(dimethylamino)methyl]phenyl}thiophen-2-yl)ethyl]amino}-2-methylquinazolin-6-yl)-1,1-dimethylurea] | 6.04 | < 4.70 |
| Cc1nc(NC(C)c2ccc(Br)s2)c2cc(N3CCN(Cc4ccccc4)C(=O)C3)ccc2n1 (stereo not drawn) [Example 441, 1-benzyl-4-(4-{[1-(5-bromothiophen-2-yl)ethyl]amino}-2-methylquinazolin-6-yl)piperazin-2-one] | 4.82 | < 4.70 |
| COc1cc2nc(C)nc(NC(C)c3ccc(-c4ccc(C)cc4CN(C)C)s3)c2cc1OC (stereo not drawn) [Example 442, N-[1-(5-{2-[(dimethylamino)methyl]-4-methylphenyl}thiophen-2-yl)ethyl]-6,7-dimethoxy-2-methylquinazolin-4-amine] | 7.35 | < 4.70 |
| COc1cc2nc(C)nc(NC(C)c3ccc(-c4ccc(C5CC5)cc4CN(C)C)s3)c2cc1OC (stereo not drawn) [Example 443, N-[1-(5-{4-cyclopropyl-2-[(dimethylamino)methyl]phenyl}thiophen-2-yl)ethyl]-6,7-dimethoxy-2-methylquinazolin-4-amine] | 7.16 | < 4.70 |
| COc1cc2nc(C)nc(NC(C)c3ccc(-c4ccccc4C(C)(C)N)s3)c2cc1OC (stereo not drawn) [Example 455, N-[1-{5-[2-(2-aminopropan-2-yl)phenyl]thiophen-2-yl}ethyl]-6,7-dimethoxy-2-methylquinazolin-4-amine] | 6.11 | < 4.70 |
| COc1cc2nc(C)nc(NC(C)c3ccc(-c4ccccc4CN(C)CC#N)s3)c2cc1OC (stereo not drawn) [Example 456, {[2-(5-{1-[(6,7-dimethoxy-2-methylquinazolin-4-yl)amino]ethyl}thiophen-2-yl)benzyl](methyl)amino}acetonitrile] | 6.54 | < 4.70 |
| CNC(=O)Nc1ccc2nc(C)nc(NC(C)c3ccc(-c4ccccc4CN(C)C)s3)c2c1 (stereo not drawn) [Example 457, 1-(4-{[1-(5-{2-[(dimethylamino)methyl]phenyl}thiophen-2-yl)ethyl]amino}-2-methylquinazolin-6-yl)-3-methylurea] | 6.20 | < 4.70 |
| Cc1nc(NC(C)c2ccc(-c3ccccc3CN(C)C)s2)c2cc(N3CCN(Cc4ccccc4)C(=O)C3)ccc2n1 (stereo not drawn) [Example 458, 1-benzyl-4-(4-{[1-(5-{2-[(dimethylamino)methyl]phenyl}thiophen-2-yl)ethyl]amino}-2-methylquinazolin-6-yl)piperazin-2-one] | 7.34 | < 4.70 |
